Assay: log P determination (HPLC, calibration with unbranched alkan-2-ones)
Type: physicochemical
Details: * LC-MS determination in the acidic range at pH 2.7, 0.1% aqueous formic acid and acetonitrile, linear gradient 10% to 95% acetonitrile
Description: The calibration is carried out using unbranched alkan-2-ones (having 3 to 16 carbon atoms) with known log P values (determination of the log P values by the retention times using linear interpolation between two successive alkanones). The lambda-maX values were determined in the maxima of the chromatographic signals using the UV spectra from 200 nm to 400 nm.
For Cc1cc(C)n(C(C)(C)C(=O)N2CCC(c3nc(C(=O)OC(C)c4ccc(F)cc4)cs3)CC2)n1 (racemic) [compound 403], the log p was 3.47*.
With Cc1cc(C)n(C(C)(C)C(=O)N2CCC(c3nc(C(=O)OC[Si](C)(C)C)cs3)CC2)n1 [compound 369] the log p was 3.84*.
In the case of Cc1cc(C)n(C(C)(C)C(=O)N2CCC(c3nc(C(=O)OC4CCCc5ccccc54)cs3)CC2)n1 (stereo not shown) [compound 368], the log p is reported as 4.04*.

Same assay, conditions: * LC-MS determination in the acidic range at pH 2.7, 0.1% aqueous formic acid and acetonitrile, linear gradient 10% to 95% acetonitrile, reversed-phase C 18
For Cc1c(Cl)c(C(F)(F)F)nn1CC(=O)N1CCC(c2nc(C(=O)OC(C)c3ccc(F)cc3)cs2)CC1 (stereo not shown) [compound 184], the log p was 3.89*.
In the case of Cc1c(Cl)c(C(F)(F)F)nn1CC(=O)N1CCC(c2nc(C(=O)Oc3ccccc3)cs2)CC1 [compound 187], the log p is reported as 3.58*.
With O=C(OCc1cccs1)c1csc(C2CCN(C(=O)Cn3ccc(C(F)(F)F)n3)CC2)n1 [compound 143] the log p was 2.85*.
For Cc1c(Cl)c(C(F)(F)F)nn1CC(=O)N1CCC(c2nc(C(=O)OC3CCCC4CCCCC43)cs2)CC1 (stereo not shown) [compound 150], the log p was 5.44*.
In the case of Cc1c(Cl)c(C(F)(F)F)nn1CC(=O)N1CCC(c2nc(C(=O)OC[Si](C)(C)C)cs2)CC1 [compound 144], the log p is reported as 4.28*.
In the case of Cc1c(Cl)c(C(F)(F)F)nn1CC(=O)N1CCC(c2nc(C(=O)OCc3ccncc3)cs2)CC1 [compound 217], the log p is reported as 1.82*.
With O=C(OCc1ccncc1)c1csc(C2CCN(C(=O)Cn3ccc(C(F)(F)F)n3)CC2)n1 [compound 142] the log p was 1.32*.

Same assay, conditions: * LC-MS determination in the acidic range at pH 2.7, mobile phases 0.1% aqueous formic acid and acetonitrile (0.1% formic acid), linear gradient 10% to 95% acetonitrile; reversed-phase C 18 HPLC
With Cc1cc(C(F)(F)F)nn1CC(=O)N1CCC(c2nc(C(=O)OCc3ccc(Cl)c(Cl)c3)cs2)CC1 [compound 775] the log p was 4.09*.
With C#CC1(OC(=O)c2csc(C3CCN(C(=O)C(C)(C)n4nc(C)cc4C)CC3)n2)CCCC1 [compound 798] the log p was 3.28*.
With CC(C)(C)c1cc(C(F)(F)F)n(CC(=O)N2CCC(c3nc(C(=O)OCC4CCCCC4)cs3)CC2)n1 [compound 847] the log p was 4.75*.
With Cc1cc(C(F)(F)F)nn1CC(=O)N1CCC(c2nc(C(=O)OC3CCCCC3C)cs2)CC1 (stereo not shown) [compound 832] the log p was 4.12*.
In the case of CCCCCCCCOC(=O)c1csc(C2CCN(C(=O)Cn3nc(C(F)(F)F)cc3C)CC2)n1 [compound 833], the log p is reported as 5.02*.
With Cc1cc(C(F)(F)F)nn1CC(=O)N1CCC(c2nc(C(=O)Oc3ccc4ncccc4c3)cs2)CC1 [compound 793] the log p was 2.37*.
In the case of Cc1c(Cl)c(C(F)(F)F)nn1C(C)C(=O)N1CCC(c2nc(C(=O)Oc3cccc4ccccc34)cs2)CC1 (racemic) [compound 770], the log p is reported as 4.50*.
With COc1ccc(COC(=O)c2csc(C3CCN(C(=O)Cn4nc(C(F)(F)F)cc4C)CC3)n2)c(OC)c1 [compound 834] the log p was 3.33*.
For Cc1cc(C(F)(F)F)nn1CC(=O)N1CCC(c2nc(C(=O)OCc3c(Cl)cc(Cl)cc3Cl)cs2)CC1 [compound 818], the log p was 4.53*.
For COc1ccccc1OC(=O)c1csc(C2CCN(C(=O)Cn3nc(C(F)(F)F)cc3C)CC2)n1 [compound 814], the log p was 3.17*.
With CC(C(=O)N1CCC(c2nc(C(=O)OC3CCCCC3)cs2)CC1)n1ccc(C(F)(F)F)n1 (stereo not shown) [compound 774] the log p was 3.88*.
With Cc1cc(C(F)(F)F)nn1CC(=O)N1CCC(c2nc(C(=O)OC/C=C/c3ccccc3)cs2)CC1 [compound 779] the log p was 3.74*.
In the case of Cc1cc(C(F)(F)F)nn1CC(=O)N1CCC(c2nc(C(=O)Oc3cccc4c3CCCC4)cs2)CC1 [compound 790], the log p is reported as 4.21*.
In the case of CC(C)(C)c1cc(C(F)(F)C(F)(F)F)n(CC(=O)N2CCC(c3nc(C(=O)OCC4CCCCC4)cs3)CC2)n1 [compound 849], the log p is reported as 5.08*.
In the case of Cc1cc(C(F)(F)F)nn1CC(=O)N1CCC(c2nc(C(=O)OCc3ccccc3OC(F)(F)F)cs2)CC1 [compound 837], the log p is reported as 3.95*.
For Cc1cc(C(F)F)n(CC(=O)N2CCC(c3nc(C(=O)OC4CCCCC4)cs3)CC2)n1 [compound 796], the log p was 3.28*.
In the case of CC(C(=O)N1CCC(c2nc(C(=O)Oc3cccc4ccccc34)cs2)CC1)n1ccc(C(F)(F)F)n1 (stereo not shown) [compound 773], the log p is reported as 3.87*.
For Cc1cc(C(F)(F)F)nn1CC(=O)N1CCC(c2nc(C(=O)OC3C(C)CCCC3C)cs2)CC1 (stereo not shown) [compound 831], the log p was 4.40*.

Same assay, conditions: * LC-MS determination in the acidic range, pH 2.7, 0.1% aqueous formic acid / acetonitrile gradient
In the case of Cc1cc(C(F)(F)F)nn1CC(=O)N1CCCC(c2nc(C(=O)OCc3ccncc3)cs2)C1 (stereo not shown) [compound 292], the log p is reported as 1.51*.

Same assay, conditions: * LC-MS determination in the acidic range, pH 2.7, 0.1% aqueous formic acid and acetonitrile, linear gradient 10% to 95% acetonitrile
In the case of Cc1cc(C(F)(F)F)nn1CC(=O)N1CCC(c2nc(C(=O)OCc3ccccc3)cs2)CC1 [compound 15], the log p is reported as 3.37*.
For Cc1cc(C(F)(F)F)nn1CC(=O)N1CCC(c2nc(C(=O)OCc3ccc(C(C)(C)C)cc3)cs2)CC1 [compound 29], the log p was 4.57*.
With Cc1cc(C(F)(F)F)nn1CC(=O)N1CCC(c2nc(C(=O)OCc3c(Cl)cccc3Cl)cs2)CC1 [compound 22] the log p was 3.94*.
With Cc1cc(C(F)(F)F)nn1CC(=O)N1CCC(c2nc(C(=O)OCc3cccs3)cs2)CC1 [compound 81] the log p was 3.22*.
With Cc1cc(C(F)(F)F)nn1CC(=O)N1CCC(c2nc(C(=O)OCc3cccc(C(F)(F)F)c3)cs2)CC1 [compound 25] the log p was 3.81*.
For O=C(Oc1cccc2ccccc12)c1csc(C2CCN(C(=O)Cn3ccc(C(F)(F)F)n3)CC2)n1 [compound 92], the log p was 3.42*.
In the case of Cc1cc(C(F)(F)F)nn1CC(=O)N1CCC(c2nc(C(=O)OCc3cc(Cl)cc(Cl)c3)cs2)CC1 [compound 21], the log p is reported as 4.24*.
In the case of Cc1cc(C(F)(F)F)nn1CC(=O)N1CCC(c2nc(C(=O)Oc3ccc(F)cc3)cs2)CC1 [compound 45], the log p is reported as 3.26*.
For Cc1ccccc1COC(=O)c1csc(C2CCN(C(=O)Cn3nc(C(F)(F)F)cc3C)CC2)n1 [compound 31], the log p was 3.62*.

Same assay, conditions: pH 2.7; read-out: log P (pH 2.7)
With Cc1cc(C(F)(F)F)nn1CC(=O)N1CCC(c2nc(C(=O)OC3CCCCC3)cs2)CC1 [compound 220, Cyclohexyl 2-(1-{[5-methyl-3-(trifluoromethyl)-1H-pyrazol-1-yl]acetyl}piperidin-4-yl)-1,3-thiazole-4-carboxylate] the chromatographic logP was 3.74.
Work on CCOC(=O)Cn1nc(C(F)(F)F)c(Cl)c1C [XVI-6, Ethyl [4-chloro-5-methyl-3-(trifluoromethyl)-1H-pyrazol-1-yl]acetate] yielded a chromatographic logP of 3.11.
In the case of CC(C)(C)c1cc(C(F)(F)C(F)(F)F)nn1CC(=O)O [V-4, [5-tert-Butyl-3-(pentafluoroethyl)-1H-pyrazol-1-yl]acetic acid], the chromatographic logP is reported as 2.75.
CCOC(=O)Cn1nc(C(F)(F)C(F)(F)F)cc1C(C)(C)C [XVI-4, Ethyl [5-tert-butyl-3-(pentafluoroethyl)-1H-pyrazol-1-yl]acetate] showed a chromatographic logP of 4.05.
Compound O=C(Oc1cccc2ccccc12)c1csc(C2CCNCC2)n1 [X-2, 4-{4-[(1-Naphthyloxy)carbonyl]-1,3-thiazol-2-yl}piperidinium chloride] has a chromatographic logP of 1.42.
With CCOC(=O)Cn1nc(C(C)C)cc1C(F)(F)F [XVI-5, Ethyl [3-isopropyl-5-(trifluoromethyl)-1H-pyrazol-1-yl]acetate] the chromatographic logP was 3.22.
In the case of CC(C)(C)c1cc(C(F)(F)C(F)(F)F)n(CC(=O)O)n1 [V-3, [3-tert-Butyl-5-(pentafluoroethyl)-1H-pyrazol-1-yl]acetic acid], the chromatographic logP is reported as 2.92.
In the case of CCOC(=O)c1csc(C2CCCN(C(=O)Cn3nc(C(F)(F)F)cc3C)C2)n1 (stereo not shown) [IV-3, Ethyl 2-(1-{[5-methyl-3-(trifluoromethyl)-1H-pyrazol-1-yl]acetyl}piperidin-3-yl)-1,3-thiazole-4-carboxylate], the chromatographic logP is reported as 2.78.
Cc1cc(C(F)(F)F)nn1CC(=O)N1CCC(c2nc(C(=O)SCc3ccc(F)cc3)cs2)CC1 [compound 27, S-(4-Fluorobenzyl) 2-(1-{[5-methyl-3-(trifluoromethyl)-1H-pyrazol-1-yl]acetyl}piperidin-4-yl)-1,3-thiazole-4-carbothioate] showed a chromatographic logP of 4.
With CCOC(=O)c1csc(C2CCN(C(=O)Cn3nc(C(F)F)cc3C(F)F)CC2)n1 [IV-1, Ethyl 2-(1-{[3,5-bis(difluoromethyl)-1H-pyrazol-1-yl]acetyl}piperidin-4-yl)-1,3-thiazole-4-carboxylate] the chromatographic logP was 2.52.
Work on CCOC(=O)Cn1nc(C(C)(C)C)cc1C(F)(F)F [XVI-1, Ethyl [3-tert-butyl-5-(trifluoromethyl)-1H-pyrazol-1-yl]acetate] yielded a chromatographic logP of 3.89.
Compound O=C(Oc1cccc2ccccc12)c1csc(C2CCN(C(=O)Cn3nc(C(F)(F)F)cc3C(F)(F)F)CC2)n1 [compound 771, 1-Naphthyl 2-(1-{[3,5-bis(trifluoromethyl)-1H-pyrazol-1-yl]acetyl}piperidin-4-yl)-1,3-thiazole-4-carboxylate] has a chromatographic logP of 4.35.
O=C(O)c1csc(C2CCN(C(=O)Cn3ccc(C(F)(F)F)n3)CC2)n1 [III-2, 2-(1-{[3-(Trifluoromethyl)-1H-pyrazol-1-yl]acetyl}piperidin-4-yl)-1,3-thiazole-4-carboxylic acid] gave a chromatographic logP of 1.65.

Same assay, conditions: pH 7.8; read-out: log P (pH 7.8)
Cc1c(Cl)c(C(F)(F)F)nn1CC(=O)O [V-6, [4-Chloro-5-methyl-3-(trifluoromethyl)-1H-pyrazol-1-yl]acetic acid] gave a chromatographic logP of 0.68.

Same assay, conditions: reversed-phase (C18) HPLC column; * LC-MS determination in the acidic range, pH 2.7, 0.1% aqueous formic acid and acetonitrile, linear gradient 10% to 95% acetonitrile; read-out: log p
Compound Cc1cc(C(F)(F)F)nn1CC(=O)N1CCC(c2nc(C(=O)SCc3ccc(F)cc3)cs2)CC1 [compound 27, S-(4-Fluorobenzyl) 2-(1-{[5-methyl-3-(trifluoromethyl)-1H-pyrazol-1-yl]acetyl}piperidin-4-yl)-1,3-thiazole-4-carbothioate] has a chromatographic logP of 4.

Same assay, conditions: reversed-phase C18 HPLC column; * LC-MS determination in the acidic range at pH 2.7, 0.1% aqueous formic acid and acetonitrile, linear gradient 10% to 95% acetonitrile, reversed-phase C 18; read-out: log p
In the case of Cc1cc(C(F)(F)F)nn1CC(=O)N1CCC(c2nc(C(=O)OC3CCCCC3)cs2)CC1 [compound 220, Cyclohexyl 2-(1-{[5-methyl-3-(trifluoromethyl)-1H-pyrazol-1-yl]acetyl}piperidin-4-yl)-1,3-thiazole-4-carboxylate], the chromatographic logP is reported as 3.74.

Same assay, conditions: reversed-phase C18 HPLC column; * LC-MS determination in the acidic range at pH 2.7, mobile phases 0.1% aqueous formic acid and acetonitrile (0.1% formic acid), linear gradient 10% to 95% acetonitrile; reversed-phase C 18 HPLC; read-out: log p
For O=C(Oc1cccc2ccccc12)c1csc(C2CCN(C(=O)Cn3nc(C(F)(F)F)cc3C(F)(F)F)CC2)n1 [compound 771, 1-Naphthyl 2-(1-{[3,5-bis(trifluoromethyl)-1H-pyrazol-1-yl]acetyl}piperidin-4-yl)-1,3-thiazole-4-carboxylate], the chromatographic logP was 4.35.

— US8569509B2, “Thiazole-4-carboxylic acid esters and thioesters as plant protection agents” (priority 2008, dated 2013)
